# Patent EP0509180A1, “Use of GABA-T inhibitors for the treatment of schizophrenia and phencyclidine intoxication” (MERRELL DOW PHARMACEUTICALS INC., priority 1991, dated 1992)
# Key:
# male CDl albino mice [1] = assay: Phencyclidine (PCP)-induced locomotor activity of mice (actimeter, Event-Counter); assay type: in vivo; settings: for direct effect on phencyclidine-induced locomotor behavior (in words): 10 minutes (15 minutes) after i.p. 150 mg/kg (4S)-allenylGABA or 400 mg/kg vigabatrin (Table I)
# Experimental: (§1) In determining efficacy for the above-stated uses of gamma-aminobutyric acid transaminase inhibitors standard laboratory models are employed wherein effects on phencyclidine-induced locomotor activity are determined. One such test employed is: male CDl albino mice (weighing 30-40 grams) (Charles River, St. Aubin-les-Elbeuf, France) kept under standardized conditions (22°C, 60% relative humidity; 12 hours light - 12 hours dark cycle; water and standard diet ad libitum). Locomotor activity is determined using the Event-Counter of Columbus Instr. Corp. (Columbus, Ohio). The animals (six per cage) are brought into a room which is equipped with an actimeter, and allowed to adapt to the new environment for several hours. Phencyclidine is given 5 hours after administration of the GABA-T inhibitors. The dose of phencyclidine used is 5 µg/g in 10 µl of physiological saline, i.p. Immediately after phencyclidine administration (or of the same volume of physiological saline in the case of controls), the animals are placed individually into standard plastic cages (23 cm × 17 cm), and the actimeter is set into action. Total time of observation: 35 minutes. The scores of 5 minute intervals are integrated and stored by the computer.
# (§2) In order to test "direct" effects of the drugs, locomotor activity was determined, starting 10 minutes after intraperitoneal administration of 150 mg/kg (4S)-allenylGABA, and 400 mg/kg vigabatrin, respectively.
# (§3) The locomotor behavior of mice with elevated brain GABA concentrations was tested as follows: vigabatrin and (4S)-allenylGABA were administered intraperitoneally in a dose-range from 100-800 mg/kg and 50-300 mg/kg, respectively. Within this dose range whole brain GABA concentrations, as observed 5 hours post injection were between 2.5 and 10 µmol/g.
# male CDl albino mice [2] = assay: Spontaneous locomotor activity of mice (actimeter, Event-Counter); assay type: in vivo
# Experimental: as §1, §2, §3
# whole brain GABA = assay: Whole brain GABA concentrations after GABA-T inhibitor administration; assay type: in vivo, mice; settings: 15 minutes after administration of optimum doses
smiles,measurement,setting,value
"C=C=C[C@@H](N)CCC(=O)O [(4S)-allenylGABA, (S)-4-amino-5,6-heptadienoic acid]","PCP-induced locomotor activity, Mean scores ± S.D.","male CDl albino mice [1]; 150 mg/kg i.p., given 10 minutes before phencyclidine (5 mg/kg)",2680 ± 1040 (11)
same,direct effect on phencyclidine-induced locomotor behavior (in words),male CDl albino mice [1],absence of an effect
same,minimal effective dose,"male CDl albino mice [1]; Mus musculus, 5 h, read-out: dose giving a statistically significant difference to mice receiving only phencyclidine",≥ 100 mg/kg
same,phencyclidine-induced hypermotility reduced by,male CDl albino mice [1]; highest dose given (300 mg/kg) i.p. 5 h before phencyclidine,75%
same,"Spontaneous locomotor activity, Mean scores ± S.D.","male CDl albino mice [2]; 50 mg/kg i.p., 5 h pretreatment",306.244 ( 6)
same,"Spontaneous locomotor activity, Mean scores ± S.D.","male CDl albino mice [2]; 100 mg/kg i.p., 5 h pretreatment",406.221 ( 6)
same,"Spontaneous locomotor activity, Mean scores ± S.D.","male CDl albino mice [2]; 150 mg/kg i.p., 5 h pretreatment",315.304 ( 6)
same,"Spontaneous locomotor activity, Mean scores ± S.D.","male CDl albino mice [2]; 150 mg/kg i.p., given 10 minutes before physiol. saline",688 ± 308 ( 6)
same,"Spontaneous locomotor activity, Mean scores ± S.D.","male CDl albino mice [2]; 300 mg/kg i.p., 5 h pretreatment",445.420 ( 6)
same,sedation / motor activity at very high dose,male CDl albino mice [2]; 600 mg/kg (not shown),sedated
same,effect on spontaneous locomotor activity (in words),"male CDl albino mice [2]; dose range from 50 to 300 mg/kg, 5 h pretreatment (Table III)",did not affect
same,brain GABA concentrations,whole brain GABA,below 3 µmol/g
"C=C[C@H](N)CCC(=O)O [Vigabatrin, (R)S-4-aminohex-5-enoic acid]","PCP-induced locomotor activity, Mean scores ± S.D.",male CDl albino mice [1]; 100 mg/kg i.p. 5 h before phencyclidine (5 mg/kg),2360 ± 1100 (12)
same,"PCP-induced locomotor activity, Mean scores ± S.D.",male CDl albino mice [1]; 200 mg/kg i.p. 5 h before phencyclidine (5 mg/kg),1970 ± 730 (12)
same,"locomotor activity, lowest value, as % of that of phencyclidine-treated controls",male CDl albino mice [1]; 400 mg/kg i.p. 5 h before phencyclidine,55%
same,"PCP-induced locomotor activity, Mean scores ± S.D.",male CDl albino mice [1]; 400 mg/kg i.p. 5 h before phencyclidine (5 mg/kg),1690 ± 1385 (12)
same,"PCP-induced locomotor activity, Mean scores ± S.D.","male CDl albino mice [1]; 400 mg/kg i.p., given 10 minutes before phencyclidine (5 mg/kg)",2460 ± 1220 (11)
same,"PCP-induced locomotor activity, Mean scores ± S.D.",male CDl albino mice [1]; 600 mg/kg i.p. 5 h before phencyclidine (5 mg/kg),2180 ± 410 (12)
same,"PCP-induced locomotor activity, Mean scores ± S.D.",male CDl albino mice [1]; 700 mg/kg i.p. 5 h before phencyclidine (5 mg/kg),1780 ± 1080 (12)
same,"PCP-induced locomotor activity, Mean scores ± S.D.",male CDl albino mice [1]; 800 mg/kg i.p. 5 h before phencyclidine (5 mg/kg),2100 ± 1780 (12)
same,direct effect on phencyclidine-induced locomotor behavior (in words),male CDl albino mice [1],absence of an effect
same,"Spontaneous locomotor activity, Mean scores ± S.D.","male CDl albino mice [2]; 200 mg/kg i.p., 5 h pretreatment",505 ± 344 (6)
same,"Spontaneous locomotor activity, Mean scores ± S.D.","male CDl albino mice [2]; 400 mg/kg i.p., 5 h pretreatment",471 ± 306 (12)
same,"Spontaneous locomotor activity, Mean scores ± S.D.","male CDl albino mice [2]; 400 mg/kg i.p., given 10 minutes before physiol. saline, 35 minutes observation",528 ± 239 ( 6)
same,"Spontaneous locomotor activity, Mean scores ± S.D.","male CDl albino mice [2]; 600 mg/kg i.p., 5 h pretreatment",361 ± 139 (6)
same,"Spontaneous locomotor activity, Mean scores ± S.D.","male CDl albino mice [2]; 700 mg/kg i.p., 5 h pretreatment",441 ± 298 (6)
same,"Spontaneous locomotor activity, Mean scores ± S.D.","male CDl albino mice [2]; 800 mg/kg i.p., 5 h pretreatment",435 ± 275 (6)
same,effect on spontaneous locomotor activity (in words),"male CDl albino mice [2]; 100-800 mg/kg i.p., 5 h pretreatment (Table II)",not significantly affected
same,brain GABA concentrations,whole brain GABA,below 3 µmol/g
